Assay results: US10201586B2 (dated 2019)
Where a SMILES comes first, the peptide text is derived from it.

Each molecule was assayed against T1, TFPI (Homo sapiens, UniProt P10646) (assay: % Inhibition @ 2.5µM).

Question: For “Ac-SGYASFPLAVQLHVAKRSKEMALARLYYKTS-NH2 (SEQ ID NO: 2008) [JBT0674]”, which “% Inhibition @ […]” value is on record?
Answer: 10%

Each molecule was assayed against T1, TFPI (assay: Extrinsic Tenase Inhibition assay | % Inhibition @ 2.5µM).

Question: With “Ac-SGYASFPLAVQLHVAKRSKEMALARLYYKTS-NH2 (SEQ ID NO: 2008) [JBT0674]” as the molecule, how does the “Extrinsic Tenase Inhibition assay | % Inhibition @ […]” value read?
Answer: 5%

The molecules below were run against T1, TFPI (assay: IC50 [nM]).
Target sequence in this assay (P10646 29-304 limits assumed): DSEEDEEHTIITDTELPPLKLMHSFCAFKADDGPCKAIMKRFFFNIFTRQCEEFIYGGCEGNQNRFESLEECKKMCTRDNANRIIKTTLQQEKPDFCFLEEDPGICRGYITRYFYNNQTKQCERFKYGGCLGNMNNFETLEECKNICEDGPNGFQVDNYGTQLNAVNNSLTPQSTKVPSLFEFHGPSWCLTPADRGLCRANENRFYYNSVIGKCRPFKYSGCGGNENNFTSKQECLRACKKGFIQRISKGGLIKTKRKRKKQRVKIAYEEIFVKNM

Question: `CSCC[C@H](NC(=O)[C@H](CCC(=O)O)NC(=O)[C@H](CCCCN)NC(=O)[C@H](CO)NC(=O)[C@H](CCCNC(=N)N)NC(=O)[C@H](CCCCN)NC(=O)[C@H](CO)NC(=O)[C@@H](NC(=O)[C@H](Cc1c[nH]cn1)NC(=O)[C@H](C)NC(=O)[C@H](CCC(N)=O)NC(=O)[C@@H](NC(=O)[C@H](C)NC(=O)[C@H](CC(C)C)NC(=O)[C@@H]1CCCN1C(=O)[C@H](Cc1ccccc1)NC(=O)[C@H](CO)NC(=O)[C@H](C)NC(=O)[C@H](Cc1ccc(O)cc1)NC(=O)CNC(=O)[C@H](CO)NC(C)=O)C(C)C)C(C)C)C(=O)N[C@@H](C)C(=O)N[C@@H](CC(C)C)C(=O)N[C@@H](C)C(=O)N[C@@H](CCCNC(=N)N)C(=O)N[C@@H](CC(C)C)C(=O)N[C@@H](Cc1ccc(O)cc1)C(=O)N[C@@H](Cc1ccc(O)cc1)C(=O)N[C@@H](CCCCN)C(=O)N[C@H](C(=O)N[C@@H](CO)C(N)=O)[C@@H](C)O` [JBT0671 | 2019] (Ac-SGYASFPLAVQAHVSKRSKEMALARLYYKTS-NH2) was tested. Which IC50 did it give?
Answer: 5.84 µM

Question: How did the IC50 turn out when `CSCC[C@H](NC(=O)[C@H](CCC(=O)O)NC(=O)[C@H](CCCCN)NC(=O)[C@H](C)NC(=O)[C@H](CCCNC(=N)N)NC(=O)[C@H](CCCCN)NC(=O)[C@H](CO)NC(=O)[C@@H](NC(=O)[C@H](Cc1c[nH]cn1)NC(=O)[C@H](CC(C)C)NC(=O)[C@H](CCC(N)=O)NC(=O)[C@@H](NC(=O)[C@H](C)NC(=O)[C@H](CC(C)C)NC(=O)[C@@H]1CCCN1C(=O)[C@H](Cc1ccccc1)NC(=O)[C@H](CO)NC(=O)[C@H](C)NC(=O)[C@H](Cc1ccc(O)cc1)NC(=O)CNC(=O)[C@H](CO)NC(C)=O)C(C)C)C(C)C)C(=O)N[C@@H](C)C(=O)N[C@@H](CC(C)C)C(=O)N[C@@H](C)C(=O)N[C@@H](CCCNC(=N)N)C(=O)N[C@@H](CC(C)C)C(=O)N[C@@H](Cc1ccc(O)cc1)C(=O)N[C@@H](Cc1ccc(O)cc1)C(=O)N[C@@H](CCCCN)C(=O)N[C@H](C(=O)N[C@@H](CO)C(N)=O)[C@@H](C)O` [JBT0677 | 2009] (Ac-SGYASFPLAVQLHVSKRAKEMALARLYYKTS-NH2) was run?
Answer: 1.91 µM

Question: How did the IC50 turn out when `CSCC[C@H](NC(=O)[C@H](CCC(=O)O)NC(=O)[C@H](CCCCN)NC(=O)[C@H](CO)NC(=O)[C@H](CCCNC(=N)N)NC(=O)[C@H](CCCCN)NC(=O)[C@H](CO)NC(=O)[C@@H](NC(=O)[C@H](Cc1c[nH]cn1)NC(=O)[C@H](CC(C)C)NC(=O)[C@H](C)NC(=O)[C@@H](NC(=O)[C@H](C)NC(=O)[C@H](CC(C)C)NC(=O)[C@@H]1CCCN1C(=O)[C@H](Cc1ccccc1)NC(=O)[C@H](CO)NC(=O)[C@H](C)NC(=O)[C@H](Cc1ccc(O)cc1)NC(=O)CNC(=O)[C@H](CO)NC(C)=O)C(C)C)C(C)C)C(=O)N[C@@H](C)C(=O)N[C@@H](CC(C)C)C(=O)N[C@@H](C)C(=O)N[C@@H](CCCNC(=N)N)C(=O)N[C@@H](CC(C)C)C(=O)N[C@@H](Cc1ccc(O)cc1)C(=O)N[C@@H](Cc1ccc(O)cc1)C(=O)N[C@@H](CCCCN)C(=O)N[C@H](C(=O)N[C@@H](CO)C(N)=O)[C@@H](C)O` [JBT0670 | 2007] (Ac-SGYASFPLAVALHVSKRSKEMALARLYYKTS-NH2) was run?
Answer: 2.51 µM

Question: How did the IC50 turn out when `CSCC[C@H](NC(=O)[C@H](CCC(=O)O)NC(=O)[C@H](CCCCN)NC(=O)[C@H](CO)NC(=O)[C@H](CCCNC(=N)N)NC(=O)[C@H](CCCCN)NC(=O)[C@H](C)NC(=O)[C@@H](NC(=O)[C@H](Cc1c[nH]cn1)NC(=O)[C@H](CC(C)C)NC(=O)[C@H](CCC(N)=O)NC(=O)[C@@H](NC(=O)[C@H](C)NC(=O)[C@H](CC(C)C)NC(=O)[C@@H]1CCCN1C(=O)[C@H](Cc1ccccc1)NC(=O)[C@H](CO)NC(=O)[C@H](C)NC(=O)[C@H](Cc1ccc(O)cc1)NC(=O)CNC(=O)[C@H](CO)NC(C)=O)C(C)C)C(C)C)C(=O)N[C@@H](C)C(=O)N[C@@H](CC(C)C)C(=O)N[C@@H](C)C(=O)N[C@@H](CCCNC(=N)N)C(=O)N[C@@H](CC(C)C)C(=O)N[C@@H](Cc1ccc(O)cc1)C(=O)N[C@@H](Cc1ccc(O)cc1)C(=O)N[C@@H](CCCCN)C(=O)N[C@H](C(=O)N[C@@H](CO)C(N)=O)[C@@H](C)O` [JBT0674 | 2008] (Ac-SGYASFPLAVQLHVAKRSKEMALARLYYKTS-NH2) was run?
Answer: 1.17 µM

Question: Which IC50 does the source give for `CSCC[C@H](NC(=O)[C@H](CCC(=O)O)NC(=O)[C@H](CCCCN)NC(=O)[C@H](CO)NC(=O)[C@H](CCCNC(=N)N)NC(=O)[C@H](CCCCN)NC(=O)[C@H](CO)NC(=O)[C@@H](NC(=O)[C@H](Cc1c[nH]cn1)NC(=O)[C@H](CC(C)C)NC(=O)[C@H](CCC(N)=O)NC(=O)[C@@H](NC(=O)[C@H](C)NC(=O)[C@H](CC(C)C)NC(=O)[C@@H]1CCCN1C(=O)[C@H](Cc1ccccc1)NC(=O)[C@H](CO)NC(=O)[C@H](C)NC(=O)[C@H](C)NC(=O)CNC(=O)[C@H](CO)NC(C)=O)C(C)C)C(C)C)C(=O)N[C@@H](C)C(=O)N[C@@H](CC(C)C)C(=O)N[C@@H](C)C(=O)N[C@@H](CCCNC(=N)N)C(=O)N[C@@H](CC(C)C)C(=O)N[C@@H](Cc1ccc(O)cc1)C(=O)N[C@@H](Cc1ccc(O)cc1)C(=O)N[C@@H](CCCCN)C(=O)N[C@H](C(=O)N[C@@H](CO)C(N)=O)[C@@H](C)O` [JBT0662 | 2131] (Ac-SGAASFPLAVQLHVSKRSKEMALARLYYKTS-NH2) here?
Answer: 13.8 µM

Question: With `CSCC[C@H](NC(=O)[C@H](CCC(=O)O)NC(=O)[C@H](CCCCN)NC(=O)[C@H](CO)NC(=O)[C@H](CCCNC(=N)N)NC(=O)[C@H](CCCCN)NC(=O)[C@H](CO)NC(=O)[C@@H](NC(=O)[C@H](Cc1c[nH]cn1)NC(=O)[C@H](CC(C)C)NC(=O)[C@H](CCC(N)=O)NC(=O)[C@@H](NC(=O)[C@H](C)NC(=O)[C@H](CC(C)C)NC(=O)[C@@H]1CCCN1C(=O)[C@H](Cc1ccccc1)NC(=O)[C@H](CO)NC(=O)[C@H](C)NC(=O)[C@H](Cc1ccc(O)cc1)NC(=O)CNC(=O)[C@H](CO)NC(C)=O)C(C)C)C(C)C)C(=O)N[C@@H](C)C(=O)N[C@@H](CC(C)C)C(=O)N[C@@H](C)C(=O)N[C@@H](CCCNC(=N)N)C(=O)N[C@@H](CC(C)C)C(=O)N[C@@H](C)C(=O)N[C@@H](Cc1ccc(O)cc1)C(=O)N[C@@H](CCCCN)C(=O)N[C@H](C(=O)N[C@@H](CO)C(N)=O)[C@@H](C)O` [JBT0686 | 2140] (Ac-SGYASFPLAVQLHVSKRSKEMALARLAYKTS-NH2) as the molecule, how does the IC50 read?
Answer: 13.5 µM

Question: Which IC50 does the source give for `CSCC[C@H](NC(=O)[C@H](CCC(=O)O)NC(=O)[C@H](CCCCN)NC(=O)[C@H](CO)NC(=O)[C@H](C)NC(=O)[C@H](CCCCN)NC(=O)[C@H](CO)NC(=O)[C@@H](NC(=O)[C@H](Cc1c[nH]cn1)NC(=O)[C@H](CC(C)C)NC(=O)[C@H](CCC(N)=O)NC(=O)[C@@H](NC(=O)[C@H](C)NC(=O)[C@H](CC(C)C)NC(=O)[C@@H]1CCCN1C(=O)[C@H](Cc1ccccc1)NC(=O)[C@H](CO)NC(=O)[C@H](C)NC(=O)[C@H](Cc1ccc(O)cc1)NC(=O)CNC(=O)[C@H](CO)NC(C)=O)C(C)C)C(C)C)C(=O)N[C@@H](C)C(=O)N[C@@H](CC(C)C)C(=O)N[C@@H](C)C(=O)N[C@@H](CCCNC(=N)N)C(=O)N[C@@H](CC(C)C)C(=O)N[C@@H](Cc1ccc(O)cc1)C(=O)N[C@@H](Cc1ccc(O)cc1)C(=O)N[C@@H](CCCCN)C(=O)N[C@H](C(=O)N[C@@H](CO)C(N)=O)[C@@H](C)O` [JBT0676 | 2137] (Ac-SGYASFPLAVQLHVSKASKEMALARLYYKTS-NH2) here?
Answer: 37.4 µM

Question: With `CSCC[C@H](NC(=O)[C@H](CCC(=O)O)NC(=O)[C@H](CCCCN)NC(=O)[C@H](CO)NC(=O)[C@H](CCCNC(=N)N)NC(=O)[C@H](CCCCN)NC(=O)[C@H](CO)NC(=O)[C@@H](NC(=O)[C@H](Cc1c[nH]cn1)NC(=O)[C@H](CC(C)C)NC(=O)[C@H](CCC(N)=O)NC(=O)[C@@H](NC(=O)[C@H](C)NC(=O)[C@H](CC(C)C)NC(=O)[C@@H]1CCCN1C(=O)[C@H](Cc1ccccc1)NC(=O)[C@H](CO)NC(=O)[C@H](C)NC(=O)[C@H](Cc1ccc(O)cc1)NC(=O)CNC(=O)[C@H](CO)NC(C)=O)C(C)C)C(C)C)C(=O)N[C@@H](C)C(=O)N[C@@H](CC(C)C)C(=O)N[C@@H](C)C(=O)N[C@@H](CCCNC(=N)N)C(=O)N[C@@H](C)C(=O)N[C@@H](Cc1ccc(O)cc1)C(=O)N[C@@H](Cc1ccc(O)cc1)C(=O)N[C@@H](CCCCN)C(=O)N[C@H](C(=O)N[C@@H](CO)C(N)=O)[C@@H](C)O` [JBT0685 | 2021] (Ac-SGYASFPLAVQLHVSKRSKEMALARAYYKTS-NH2) as the molecule, how does the IC50 read?
Answer: 9.13 µM

Question: Which IC50 does the source give for `CSCC[C@H](NC(=O)[C@H](CCC(=O)O)NC(=O)[C@H](CCCCN)NC(=O)[C@H](CO)NC(=O)[C@H](CCCNC(=N)N)NC(=O)[C@H](CCCCN)NC(=O)[C@H](CO)NC(=O)[C@@H](NC(=O)[C@H](Cc1c[nH]cn1)NC(=O)[C@H](CC(C)C)NC(=O)[C@H](CCC(N)=O)NC(=O)[C@@H](NC(=O)[C@H](C)NC(=O)[C@H](CC(C)C)NC(=O)[C@@H]1CCCN1C(=O)[C@H](Cc1ccccc1)NC(=O)[C@H](CO)NC(=O)[C@H](C)NC(=O)[C@H](Cc1ccc(O)cc1)NC(=O)CNC(=O)[C@H](CO)NC(=O)[C@H](CO)NC(=O)CN)C(C)C)C(C)C)C(=O)N[C@@H](C)C(=O)N[C@@H](CC(C)C)C(=O)N[C@@H](C)C(=O)N[C@@H](CCCNC(=N)N)C(=O)N[C@@H](CC(C)C)C(=O)N[C@@H](Cc1ccc(O)cc1)C(=O)N[C@@H](Cc1ccc(O)cc1)C(=O)N[C@@H](CCCCN)C(=O)N[C@H](C(=O)N[C@@H](CO)C(=O)O)[C@@H](C)O` [JBT0788] (H-GSSGYASFPLAVQLHVSKRSKEMALARLYYKTS-OH) here?
Answer: 16.2 µM

Question: `CSCC[C@H](NC(=O)[C@H](CCC(=O)O)NC(=O)[C@H](CCCCN)NC(=O)[C@H](CO)NC(=O)[C@H](CCCNC(=N)N)NC(=O)[C@H](C)NC(=O)[C@H](CO)NC(=O)[C@@H](NC(=O)[C@H](Cc1c[nH]cn1)NC(=O)[C@H](CC(C)C)NC(=O)[C@H](CCC(N)=O)NC(=O)[C@@H](NC(=O)[C@H](C)NC(=O)[C@H](CC(C)C)NC(=O)[C@@H]1CCCN1C(=O)[C@H](Cc1ccccc1)NC(=O)[C@H](CO)NC(=O)[C@H](C)NC(=O)[C@H](Cc1ccc(O)cc1)NC(=O)CNC(=O)[C@H](CO)NC(C)=O)C(C)C)C(C)C)C(=O)N[C@@H](C)C(=O)N[C@@H](CC(C)C)C(=O)N[C@@H](C)C(=O)N[C@@H](CCCNC(=N)N)C(=O)N[C@@H](CC(C)C)C(=O)N[C@@H](Cc1ccc(O)cc1)C(=O)N[C@@H](Cc1ccc(O)cc1)C(=O)N[C@@H](CCCCN)C(=O)N[C@H](C(=O)N[C@@H](CO)C(N)=O)[C@@H](C)O` [JBT0675 | 2136] (Ac-SGYASFPLAVQLHVSARSKEMALARLYYKTS-NH2) was tested. Which IC50 did it give?
Answer: 18.3 µM
